Values quoted from earlier work in US20080260785A1, “PAROXETINE COMPOSITIONS” (priority 2005, published 2008).

Conditions: hydrochloride hemihydrate

## Cl.Fc1ccc([C@@H]2CCNC[C@H]2COc2ccc3c(c2)OCO3)cc1 [Paroxetine, (−)-trans-4R-(4′-fluorophenyl)-3S-[(3′,4′-methylenedioxyphenoxy)methyl]piperidine]
  solubility in water: 5400 µg/mL
